PubChem BioAssay (NCI)
Values joined by “and” are separate entries in the source; they are usually repeats but may differ in a detail not shown here. Identical values can stand only once.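 Briefly, cells in 96-well plates were exposed to five compound concentrations for 48 h, and endpoints were estimated by linear interpolation. The concentration for full growth arrest is given as TGI.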

Columns and labels:
Experiment in all cases: DTP human tumour cell line panel, 48 h
OVCAR-4 ovarian = test system: OVCAR-4 ovarian
HCT-116 colon = test system: HCT-116 colon
T-47D breast = test system: T-47D breast
IGROV1 ovarian = test system: IGROV1 ovarian
MOLT-4 leukemia = test system: MOLT-4 leukemia
HT29 colon = test system: HT29 colon
MDA-MB-231 breast = test system: MDA-MB-231 breast
SK-MEL-2 melanoma = test system: SK-MEL-2 melanoma
EKVX NSCLC = test system: EKVX NSCLC
NCI/ADR-RES ovarian = test system: NCI/ADR-RES ovarian
MDA-MB-435 = test system: MDA-MB-435
SN12C renal = test system: SN12C renal
SK-OV-3 ovarian = test system: SK-OV-3 ovarian
SNB-75 CNS = test system: SNB-75 CNS
SR leukemia = test system: SR leukemia
786-0 renal = test system: 786-0 renal
SK-MEL-28 melanoma = test system: SK-MEL-28 melanoma
MCF7 breast = test system: MCF7 breast
TK-10 renal = test system: TK-10 renal

`CCN(CC)CCn1c2cc3c(cc2c(=O)c2cccnc21)OCO3` was tested. Which TGI (OVCAR-4 ovarian) did it give?
Its TGI is > 10 µM.

What about the TGI (HCT-116 colon) of the same compound?
The TGI was > 10 µM.

What about the TGI (T-47D breast) of the same compound?
The TGI was > 10 µM.

And the TGI (IGROV1 ovarian)?
The TGI was > 10 µM.

And the TGI (MOLT-4 leukemia)?
Its TGI is > 10 µM.

What about the TGI (HT29 colon) of the same compound?
Its TGI is > 10 µM.

What about the TGI (MDA-MB-231 breast) of the same compound?
Its TGI is > 10 µM.

What about the TGI (SK-MEL-2 melanoma) of the same compound?
The TGI was > 10 µM.

And the TGI (EKVX NSCLC)?
Its TGI is > 10 µM.

What about the TGI (NCI/ADR-RES ovarian) of the same compound?
The TGI was > 10 µM.

What about the TGI (MDA-MB-435) of the same compound?
Its TGI is > 10 µM.

What about the TGI (SN12C renal) of the same compound?
Its TGI is > 10 µM.

And the TGI (SK-OV-3 ovarian)?
Its TGI is > 10 µM.

What about the TGI (SNB-75 CNS) of the same compound?
The TGI was > 10 µM.

What about the TGI (SR leukemia) of the same compound?
Its TGI is > 10 µM.

What about the TGI (786-0 renal) of the same compound?
The TGI was > 10 µM.

And the TGI (SK-MEL-28 melanoma)?
Its TGI is > 10 µM.

And the TGI (MCF7 breast)?
The TGI was > 10 µM.

What about the TGI (TK-10 renal) of the same compound?
The TGI was > 10 µM.

With `CC1(c2nc3ccccc3[nH]2)CCC(C(N)=O)C(C)(C)O1` (stereo not drawn) as the compound, how does the TGI (OVCAR-4 ovarian) read?
Its TGI is > 100 µM.

And the TGI (HCT-116 colon)?
Its TGI is > 100 µM.

What about the TGI (T-47D breast) of the same compound?
Its TGI is > 100 µM.

And the TGI (IGROV1 ovarian)?
Its TGI is > 100 µM.

And the TGI (MOLT-4 leukemia)?
The TGI was > 100 µM.

What about the TGI (HT29 colon) of the same compound?
Its TGI is > 100 µM.

What about the TGI (MDA-MB-231 breast) of the same compound?
The TGI was > 100 µM.

And the TGI (SK-MEL-2 melanoma)?
Its TGI is > 100 µM.

And the TGI (EKVX NSCLC)?
The TGI was > 100 µM.

And the TGI (NCI/ADR-RES ovarian)?
The TGI was > 100 µM.

And the TGI (MDA-MB-435)?
Its TGI is > 100 µM.

What about the TGI (SN12C renal) of the same compound?
Its TGI is > 100 µM.

And the TGI (SK-OV-3 ovarian)?
The TGI was > 100 µM.

And the TGI (SNB-75 CNS)?
The TGI was > 100 µM.

And the TGI (SR leukemia)?
The TGI was > 100 µM.

What about the TGI (786-0 renal) of the same compound?
The TGI was > 100 µM.

What about the TGI (SK-MEL-28 melanoma) of the same compound?
Its TGI is > 100 µM.

And the TGI (MCF7 breast)?
The TGI was > 100 µM.

What about the TGI (TK-10 renal) of the same compound?
The TGI was > 100 µM.

How did the TGI (OVCAR-4 ovarian) turn out when `Cc1ccc(CC2(OCCN(C)C)CCC(C(C)(C)C)CC2)cc1` (stereo not drawn) was run?
Its TGI is 15.2 µM and 16.6 µM.

And the TGI (HCT-116 colon)?
Its TGI is 6.73 µM and 6.24 µM.

And the TGI (T-47D breast)?
Its TGI is 8.34 µM and 6.33 µM.

What about the TGI (IGROV1 ovarian) of the same compound?
Its TGI is 19.4 µM and 21.5 µM.

And the TGI (MOLT-4 leukemia)?
Its TGI is 4.11 µM and 4.8 µM.

And the TGI (HT29 colon)?
Its TGI is 5.15 µM and 5.9 µM.

What about the TGI (MDA-MB-231 breast) of the same compound?
The TGI was 19 µM and 18.8 µM.

What about the TGI (SK-MEL-2 melanoma) of the same compound?
The TGI was 4.96 µM and 5.35 µM.

And the TGI (EKVX NSCLC)?
The TGI was 21.6 µM and 28 µM.

And the TGI (NCI/ADR-RES ovarian)?
The TGI was 21.5 µM and 22.3 µM.

And the TGI (MDA-MB-435)?
The TGI was 5.79 µM and 5.96 µM.

What about the TGI (SN12C renal) of the same compound?
Its TGI is 17.6 µM and 17.8 µM.

What about the TGI (SK-OV-3 ovarian) of the same compound?
Its TGI is 20.9 µM and 23.6 µM.

And the TGI (SNB-75 CNS)?
The TGI was 21.9 µM and 20.3 µM.

What about the TGI (SR leukemia) of the same compound?
The TGI was 4.67 µM and 5.58 µM.

What about the TGI (786-0 renal) of the same compound?
Its TGI is 4.45 µM and 3.7 µM.

And the TGI (SK-MEL-28 melanoma)?
The TGI was 4.08 µM and 4.04 µM.

What about the TGI (MCF7 breast) of the same compound?
Its TGI is 7.74 µM and 8.45 µM.

What about the TGI (TK-10 renal) of the same compound?
The TGI was 17.2 µM and 19.6 µM.

What does the source list for `COc1ccc2c(c1)CC[C@@H]1[C@@H]2CC[C@]2(C)C(=O)/C(=C/c3ccncc3)C[C@@H]12`?
TGI (OVCAR-4 ovarian): > 100 µM; TGI (HCT-116 colon): > 100 µM; TGI (T-47D breast): > 100 µM; TGI (IGROV1 ovarian): > 100 µM; TGI (MOLT-4 leukemia): > 100 µM; TGI (HT29 colon): > 100 µM; TGI (MDA-MB-231 breast): > 100 µM; TGI (SK-MEL-2 melanoma): 60.1 µM; TGI (EKVX NSCLC): > 100 µM; TGI (NCI/ADR-RES ovarian): > 100 µM; TGI (MDA-MB-435): 92.4 µM; TGI (SN12C renal): > 100 µM; TGI (SK-OV-3 ovarian): > 100 µM; TGI (SNB-75 CNS): > 100 µM; TGI (SR leukemia): > 100 µM; TGI (786-0 renal): > 100 µM; TGI (SK-MEL-28 melanoma): 90.6 µM; TGI (MCF7 breast): > 100 µM; TGI (TK-10 renal): > 100 µM

With `COc1ccccc1N1C(=O)CS(=O)(=O)C1c1cccc(Oc2ccccc2)c1` (stereo not drawn) as the compound, how does the TGI (OVCAR-4 ovarian) read?
The TGI was 38.6 µM.

What about the TGI (HCT-116 colon) of the same compound?
Its TGI is 27.3 µM.

What about the TGI (T-47D breast) of the same compound?
The TGI was 48.3 µM.

What about the TGI (MOLT-4 leukemia) of the same compound?
The TGI was 38.8 µM.

And the TGI (HT29 colon)?
The TGI was 44.1 µM.

And the TGI (MDA-MB-231 breast)?
Its TGI is 30.7 µM.

What about the TGI (SK-MEL-2 melanoma) of the same compound?
The TGI was 27.1 µM.

What about the TGI (EKVX NSCLC) of the same compound?
Its TGI is 42.6 µM.

What about the TGI (NCI/ADR-RES ovarian) of the same compound?
The TGI was 40 µM.

And the TGI (MDA-MB-435)?
The TGI was 22.2 µM.

What about the TGI (SN12C renal) of the same compound?
The TGI was 33.1 µM.

What about the TGI (SK-OV-3 ovarian) of the same compound?
Its TGI is 73.5 µM.

What about the TGI (SNB-75 CNS) of the same compound?
The TGI was 48.2 µM.

What about the TGI (SR leukemia) of the same compound?
The TGI was 28.2 µM.

And the TGI (786-0 renal)?
The TGI was 34.9 µM.

What about the TGI (SK-MEL-28 melanoma) of the same compound?
The TGI was 36.7 µM.

And the TGI (MCF7 breast)?
Its TGI is 20.4 µM.

What about the TGI (TK-10 renal) of the same compound?
The TGI was 33.8 µM.

What does the source list for `COCOCC1CCCN1CN1CCC[C@H]1COCOC` (stereo partly drawn)?
TGI (OVCAR-4 ovarian): > 100 µM; TGI (HCT-116 colon): > 100 µM; TGI (T-47D breast): > 100 µM; TGI (IGROV1 ovarian): > 100 µM; TGI (MOLT-4 leukemia): > 100 µM; TGI (HT29 colon): > 100 µM; TGI (MDA-MB-231 breast): > 100 µM; TGI (SK-MEL-2 melanoma): > 100 µM; TGI (EKVX NSCLC): > 100 µM; TGI (NCI/ADR-RES ovarian): > 100 µM; TGI (MDA-MB-435): > 100 µM; TGI (SN12C renal): > 100 µM; TGI (SK-OV-3 ovarian): > 100 µM; TGI (SNB-75 CNS): > 100 µM; TGI (SR leukemia): > 100 µM; TGI (786-0 renal): > 100 µM; TGI (SK-MEL-28 melanoma): > 100 µM; TGI (MCF7 breast): > 100 µM; TGI (TK-10 renal): > 100 µM
